No end group written: not given here.
Columns and labels:
[1] = tested on: Vero E6 cells; test: Cellular adsorption of FITC-labeled peptide (fluorescence microscopy); type: cell-based, monkey; details: cells treated solely with FITC
Description: The cellular adsorption behaviors of K5 were examined using FITC-labeled peptide. Vero E6 cells were incubated in 24-well plates in medium containing 100 μM of FITC-labeled peptide for two different durations: 1 min and 1 h. Subsequently, the cells were washed three times using a PBS solution containing heparin, then stained with DAPI for 30 min. Finally, they were fixed using a 4% PFA solution and then observed using an inverted fluorescence microscope manufactured by Zeiss in Oberkochen, Germany. The control group consisted of cells with only functional peptides added or only FITC added.

[2] = target: ACE2–S protein interaction (Vero E6 cells) (Chlorocebus aethiops, UniProt Q1LZX8); test: Inhibition of S1 protein-ACE2 interaction, flow cytometry, Vero E6; type: cell-based, monkey; details: K5 1 h pre-incubation, S1 protein 10 μg/mL 1 h
[3] = tested on: A549 cells; test: MTT cytotoxicity, A549; type: cell-based, human; details: 24 h; for cell viability: MTT, % of untreated cells
Description: (§1) Vero E6 and A549 cells were cultured in DMEM containing 10% FBS and 5% CO2 at 37 degrees centigrade (°C). The medium was renewed once every three days. The cells were passaged when they attained confluence.
(§2) The cytotoxicity of the functional peptide was assessed using the MTT test. The test cells were seeded onto 96-well plates and grown overnight. The functional peptide K5 was introduced at concentrations of 0.1, 1, 10, and 100 μM for a 24 h incubation. MTT was then added, and cells were incubated for an additional 2 h. The medium was removed and replaced with 100 μL of DMSO. A measurement of absorbance was conducted at 492 nm (OD492) using a microplate reader (EnSpire, Cleveland, OH, USA). Cells without treatment were set as blanks, and the results are expressed as a percentage of the untreated cells.

[4] = tested on: Vero E6 cells; test: MTT cytotoxicity, Vero E6; type: cell-based, monkey; details: 24 h; for cell viability: MTT, % of untreated cells
Description: as §1, §2

[5] = tested on: ACE2; details: short peptide; ref not given ("It was reported"); cited from earlier work
Description: To date, only a small number of drug design studies have focused on the SARS-CoV-2 receptor, with a particular emphasis on ACE2 antagonists. Exogenous proteins have disadvantages such as low efficiency in drug delivery and immunogenicity, whereas small-molecule ligands pose limitations such as challenges for manufacturing and increased toxicity. Thus, direct interception of the amino acids of ACE2 could be a simple and effective method. The length of the ACE2-derived peptide (CSNP1) is 16 amino acids.

In the case of fluorescein isothiocyanate [FITC], the “cellular adsorption (fluorescence), FITC alone” value [1] is reported as “did not exhibit any fluorescence”.
In the case of KYPAY [K5, KYPAY], the MFI reduction ([2]; FBS, 10 μM) is reported as 50%, the MFI decrease ([2]; FBS, 100 μM) is reported as 70% and the MFI decrease ([2]; PBS, 1 μM) is reported as “approximately 25%”. The inhibition at 100 µM ([2]; Vero C1008, PBS, 100 μM, read-out: MFI decrease (inhibition)) was 78%, the cell viability ([3]; 0.1 μM) was 93% and the cell viability ([3]; 1 μM) was 100%. The cell viability ([3]; 10 μM) was 103%, the cell viability ([3]; 100 μM) was 101% and the “change in cell viability / toxicity” value ([3]; 0.1-100 μM, physiological pH, A549) was “no discernible change in cell viability”. It also gave a cell viability ([4]; 0.1 μM) of 108%, a cell viability ([4]; 1 μM) of 105% and a cell viability ([4]; 10 μM) of 96%. The cell viability ([4]; 100 μM) was 94% and the “change in cell viability / toxicity” value ([4]; 0.1-100 μM, physiological pH, Vero E6) was “no discernible change in cell viability”.
For EDLFYQ [SAPs], the IC50 [5] is given as “at the mM level”.
